Laboratory results as given in ChEMBL document CHEMBL4483862, “Open-source discovery of chemical leads for next-generation chemoprotective antimalarials” (2018).

System: Plasmodium berghei
Experiment: Luciferase/luciferin-expressing antifolate-resistant parasites were used to infect a culture of HepG2 cells that were pre-incubated with compounds. Infected hepatocytes emit light due to the luciferase reaction. Assay results are presented as the percent inhibition of light emission compared to control. […]
Type: functional
Details: sporozoite; for IC90: read-out: LUCIFERASE INFECTION ASSAY - IC90

With `Cc1nc(C(=O)NNC(=O)c2ccc(Cl)cc2)cs1` the IC50 (PBLUC_HILL_SLOPE 2.52, PBLUC_R_SQUARED 0.734, read-out: LUCIFERASE INFECTION ASSAY - IC50) was greater than 11.2 µM and the IC90 was greater than 11.2 µM.

With `COc1cc2c(cc1OC)C(c1ccccc1C(F)(F)F)CC(=O)N2` (stereo not given) the IC50 (PBLUC_HILL_SLOPE 2.57, PBLUC_R_SQUARED 0.0741, read-out: LUCIFERASE INFECTION ASSAY - IC50) was 7.98 µM and the IC90 was greater than 9.39 µM.

`O=C(Nc1ccc(F)cc1F)c1cc(Cl)cc(Cl)c1O` was tested, and the IC50 (PBLUC_HILL_SLOPE 2.53, PBLUC_R_SQUARED 0.435, read-out: LUCIFERASE INFECTION ASSAY - IC50) was 4.75 µM and the IC90 was greater than 10.4 µM.

With `NC1=CC(=O)c2ccccc2C1=O` the IC50 (PBLUC_HILL_SLOPE 2.49, PBLUC_R_SQUARED 0.187, read-out: LUCIFERASE INFECTION ASSAY - IC50) was 12 µM and the IC90 was greater than 19.1 µM.

For `CCC(C)(C)c1ccc(Oc2ccc(NC(=O)COC(=O)c3ccc(Cl)c(S(N)(=O)=O)c3)cc2)cc1`, the IC50 (PBLUC_HILL_SLOPE 2.55, PBLUC_R_SQUARED 0.138, read-out: LUCIFERASE INFECTION ASSAY - IC50) was 5.78 µM and the IC90 was greater than 10 µM.

For `CCn1nc(C(=O)NCc2ccc(OC)cc2)c2c1CCN(C(=O)c1cc(C)n[nH]1)C2`, the IC50 (PBLUC_HILL_SLOPE 2.57, PBLUC_R_SQUARED 0.68, read-out: LUCIFERASE INFECTION ASSAY - IC50) was 1.57 µM and the IC90 was 3.69 µM.

`CCOc1cc2c(cc1/C=C/C(=O)c1ccc(C)o1)OC(C)C2` (stereo not given) was tested, and the IC50 (PBLUC_HILL_SLOPE 2.56, PBLUC_R_SQUARED 0.238, read-out: LUCIFERASE INFECTION ASSAY - IC50) was 9.29 µM and the IC90 was greater than 10 µM.

Compound `COc1cc2[nH]c(CN3CCN(c4ncccn4)CC3)nc(=O)c2cc1OC` has an IC50 (PBLUC_HILL_SLOPE 2.49, PBLUC_R_SQUARED 0.0972, read-out: LUCIFERASE INFECTION ASSAY - IC50) of 7.74 µM and an IC90 greater than 10 µM.

`Cc1nn2c3ccccc3n(C)c2c1C(=O)N/N=C/c1ccc([N+](=O)[O-])o1` showed an IC50 (PBLUC_HILL_SLOPE 2.48, PBLUC_R_SQUARED 0.513, read-out: LUCIFERASE INFECTION ASSAY - IC50) of 5.52 µM and an IC90 greater than 10 µM.

Work on `O=C(c1cnc(Nc2cccc(Cc3ccccc3)c2)[nH]1)c1ccccc1O` yielded an IC50 (PBLUC_HILL_SLOPE 2.54, PBLUC_R_SQUARED 0.464, read-out: LUCIFERASE INFECTION ASSAY - IC50) of 6.19 µM and an IC90 greater than 8.93 µM.

For `Cc1ccc(NNC(=O)c2cnc3c(c2)c(C)nn3C)cc1Cl`, the IC50 (PBLUC_HILL_SLOPE 2.54, PBLUC_R_SQUARED 0.422, read-out: LUCIFERASE INFECTION ASSAY - IC50) was 7.03 µM and the IC90 was greater than 10 µM.

In the case of `Nc1nc(-c2c[nH]c3ccccc23)c(-c2ccccc2)s1`, the IC50 (PBLUC_HILL_SLOPE 2.51, PBLUC_R_SQUARED 0.619, read-out: LUCIFERASE INFECTION ASSAY - IC50) is reported as 7.04 µM and the IC90 is reported as greater than 10 µM.

For `O=C(CN1CC=C(c2c[nH]c3ccccc23)CC1)Nc1cccc(F)c1`, the IC50 (PBLUC_HILL_SLOPE 2.56, PBLUC_R_SQUARED 0.252, read-out: LUCIFERASE INFECTION ASSAY - IC50) was 6.56 µM and the IC90 was greater than 10 µM.

`CC1N(C)c2cc(NC(=O)/C=C/c3ccc(F)cc3)ccc2C1(C)C` (stereo not given) showed an IC50 (PBLUC_HILL_SLOPE 2.49, PBLUC_R_SQUARED 0.1, read-out: LUCIFERASE INFECTION ASSAY - IC50) of 5.32 µM and an IC90 greater than 10 µM.

`Nc1nccnc1C(=O)Nc1ncc(Cc2cc(Cl)cc(Cl)c2)s1` was tested, and the IC50 (PBLUC_HILL_SLOPE 2.47, PBLUC_R_SQUARED 0.427, read-out: LUCIFERASE INFECTION ASSAY - IC50) was 2.91 µM and the IC90 was 7.09 µM.

`CC(C)NC(=O)NCc1ccc(C(=O)OCC(=O)C(C#N)=C2Nc3ccccc3N2)cc1` showed an IC50 (PBLUC_HILL_SLOPE 2.52, PBLUC_R_SQUARED 0.605, read-out: LUCIFERASE INFECTION ASSAY - IC50) of 2.88 µM and an IC90 of 6.88 µM.

Work on `CCOC(=O)c1c(N)sc(Sc2ccccc2[N+](=O)[O-])c1-c1ccccc1` yielded an IC50 (PBLUC_HILL_SLOPE 2.49, PBLUC_R_SQUARED 0.748, read-out: LUCIFERASE INFECTION ASSAY - IC50) of 4.39 µM and an IC90 greater than 10 µM.

In the case of `Cc1nc(COc2ccc(Cl)cc2)sc1C(=O)OC(C)C(=O)N1CCCC1` (stereo not given), the IC50 (PBLUC_HILL_SLOPE 2.47, PBLUC_R_SQUARED 0.699, read-out: LUCIFERASE INFECTION ASSAY - IC50) is reported as 4.52 µM and the IC90 is reported as greater than 10 µM.

With `CCC(C)(C)c1ccc(Oc2ccc(NC(=O)COC(=O)CNC(=O)c3ccc(C)c(C)c3)cc2)cc1` the IC50 (PBLUC_HILL_SLOPE 2.53, PBLUC_R_SQUARED 0.335, read-out: LUCIFERASE INFECTION ASSAY - IC50) was 6.55 µM and the IC90 was greater than 10 µM.

`CCN(Cc1ccc(Cl)s1)C(=O)c1ccc(NC(=O)c2ccco2)cc1` showed an IC50 (PBLUC_HILL_SLOPE 2.47, PBLUC_R_SQUARED 0.568, read-out: LUCIFERASE INFECTION ASSAY - IC50) of 5.55 µM and an IC90 greater than 10 µM.

`CC(=O)N1CCc2cc(NC(=O)C3CCN(c4ccc(C#N)cn4)CC3)ccc21` showed an IC50 (PBLUC_HILL_SLOPE 2.56, PBLUC_R_SQUARED 0.25, read-out: LUCIFERASE INFECTION ASSAY - IC50) greater than 10 µM and an IC90 greater than 10 µM.

`N#C/C(=C\c1cn(Cc2ccccc2)nc1-c1cccnc1)c1nc2ccccc2[nH]1` showed an IC50 (PBLUC_HILL_SLOPE 2.49, PBLUC_R_SQUARED 0.607, read-out: LUCIFERASE INFECTION ASSAY - IC50) of 3.65 µM and an IC90 of 8.82 µM.

With `O=c1cc(N2CCCN(c3ccc(C(F)(F)F)cn3)CC2)nc2ccccn12` the IC50 (PBLUC_HILL_SLOPE 2.47, PBLUC_R_SQUARED 0.397, read-out: LUCIFERASE INFECTION ASSAY - IC50) was 5.84 µM and the IC90 was greater than 10 µM.

For `CCC1=C(C(=O)OC)C(c2c(F)cccc2F)NC(=S)N1c1ccc2c(c1)OCCO2` (stereo not given), the IC50 (PBLUC_HILL_SLOPE 2.5, PBLUC_R_SQUARED 0.683, read-out: LUCIFERASE INFECTION ASSAY - IC50) was 6.87 µM and the IC90 was greater than 10 µM.

In the case of `CCn1cc(C(=O)OC)c(=O)c2cc(C(F)(F)F)ccc21`, the IC50 (PBLUC_HILL_SLOPE 2.56, PBLUC_R_SQUARED 0.477, read-out: LUCIFERASE INFECTION ASSAY - IC50) is reported as 5.72 µM and the IC90 is reported as greater than 11 µM.

`C=C(C)c1cccc(C(C)(C)NC(=O)NNc2ccnc3cc(Cl)ccc23)c1` was tested, and the IC50 (PBLUC_HILL_SLOPE 2.57, PBLUC_R_SQUARED 0.548, read-out: LUCIFERASE INFECTION ASSAY - IC50) was 3.86 µM and the IC90 was 9.06 µM.

For `Cc1ccc(C(=O)Nc2nc3ccccc3[nH]2)cc1NC(=O)c1ccco1`, the IC50 (PBLUC_HILL_SLOPE 2.56, PBLUC_R_SQUARED 0.483, read-out: LUCIFERASE INFECTION ASSAY - IC50) was 4.68 µM and the IC90 was greater than 10 µM.

In the case of `NC(=O)c1cccc(-c2cn3c(-c4ccc(F)c(Cl)c4)cnc3cn2)c1`, the IC50 (PBLUC_HILL_SLOPE 2.55, PBLUC_R_SQUARED 0.396, read-out: LUCIFERASE INFECTION ASSAY - IC50) is reported as 5.28 µM and the IC90 is reported as greater than 9 µM.

`Cc1cc([N+](=O)[O-])cc[n+]1[O-]` gave an IC50 (PBLUC_HILL_SLOPE 2.57, PBLUC_R_SQUARED 0.305, read-out: LUCIFERASE INFECTION ASSAY - IC50) of 14.6 µM and an IC90 greater than 21.4 µM.

With `C=CCn1c(-c2ccc(Cl)cc2Cl)csc1=Nc1ccc(NC(C)=O)cc1` the IC50 (PBLUC_HILL_SLOPE 2.47, PBLUC_R_SQUARED 0.472, read-out: LUCIFERASE INFECTION ASSAY - IC50) was 2.64 µM and the IC90 was 6.44 µM.

For `O=C(Nc1cc(Cl)sc1Cl)Oc1cccnc1`, the IC50 (PBLUC_HILL_SLOPE 2.49, PBLUC_R_SQUARED 0.591, read-out: LUCIFERASE INFECTION ASSAY - IC50) was 4.41 µM and the IC90 was 10.6 µM.

`NS(=O)(=O)c1cc(C(=O)OCC(=O)Nc2ccc(OC(F)F)cc2)ccc1Cl` showed an IC50 (PBLUC_HILL_SLOPE 2.5, PBLUC_R_SQUARED 0.514, read-out: LUCIFERASE INFECTION ASSAY - IC50) of 6.64 µM and an IC90 greater than 10 µM.

`Cc1ccc2cc(C)c(N/N=C/c3c(C)nn(-c4ccccc4)c3Cl)nc2c1` was tested, and the IC50 (PBLUC_HILL_SLOPE 2.56, PBLUC_R_SQUARED 0.451, read-out: LUCIFERASE INFECTION ASSAY - IC50) was 3.89 µM and the IC90 was 9.17 µM.

In the case of `CC(C)c1ccc(NC(=O)N2[C@@H]3CC[C@@H](C3)[C@H]2c2nc3c(OCC4CC4)cccc3[nH]2)cc1`, the IC50 (PBLUC_HILL_SLOPE 2.47, PBLUC_R_SQUARED 0.452, read-out: LUCIFERASE INFECTION ASSAY - IC50) is reported as 6.2 µM and the IC90 is reported as greater than 10 µM.

For `O=C(Nc1ccc(OC(F)(F)F)cc1)Nc1cc(-c2ccco2)n[nH]1`, the IC50 (PBLUC_HILL_SLOPE 2.58, PBLUC_R_SQUARED 0.157, read-out: LUCIFERASE INFECTION ASSAY - IC50) was 7.52 µM and the IC90 was greater than 9.37 µM.

With `COc1ccc(OC)c(/C=c2\s/c(=C(/C#N)c3nnc4n3CCCCC4)n(-c3ccccc3)c2=O)c1` the IC50 (PBLUC_HILL_SLOPE 2.48, PBLUC_R_SQUARED 0.654, read-out: LUCIFERASE INFECTION ASSAY - IC50) was 4.74 µM and the IC90 was greater than 10 µM.

For `Cc1cc(CN(Cc2ccc(C(=O)NC3CC3)cc2)Cc2ccco2)no1`, the IC50 (PBLUC_HILL_SLOPE 2.47, PBLUC_R_SQUARED 0.284, read-out: LUCIFERASE INFECTION ASSAY - IC50) was 5.89 µM and the IC90 was greater than 10 µM.

`CCCCOCCCNC(=O)c1cc2ccccc2cc1OC` showed an IC50 (PBLUC_HILL_SLOPE 2.53, PBLUC_R_SQUARED 0.451, read-out: LUCIFERASE INFECTION ASSAY - IC50) of 6.56 µM and an IC90 greater than 10 µM.

Compound `COc1ccc(S(=O)(=O)Nc2cc(Sc3ccc(C)cc3)c(O)c3ccccc23)cc1` has an IC50 (PBLUC_HILL_SLOPE 2.53, PBLUC_R_SQUARED 0.459, read-out: LUCIFERASE INFECTION ASSAY - IC50) of 6.71 µM and an IC90 greater than 10 µM.

Work on `C/C(=N\N=C(N)N)c1ccc(Cl)c(Cl)c1` yielded an IC50 (PBLUC_HILL_SLOPE 2.49, PBLUC_R_SQUARED 0.254, read-out: LUCIFERASE INFECTION ASSAY - IC50) of 4.31 µM and an IC90 greater than 10 µM.
